Reference: ChEMBL document CHEMBL4052642, “4-Methyl-6,7-dihydro-4H-triazolo[4,5-c]pyridine-Based P2X7 Receptor Antagonists: Optimization of Pharmacokinetic Properties Leading to the Identification of a Clinical Candidate” (J Med Chem, 2017)
Converted amounts (≈) assume the structure as drawn.

What was measured:
[1] = Solubility of compound in phosphate buffer at pH 7 after 3 days; type: physicochemical
Cytochrome P450 2D6 = Cytochrome P450 2D6 (Homo sapiens, UniProt P10635); test: Inhibition of CYP2D6 in human liver microsomes using dextromethorphan as substrate after 15 mins by LC-MS/MS analysis; type: ADME
Sequence of Cytochrome P450 2D6 (P10635 whole entry): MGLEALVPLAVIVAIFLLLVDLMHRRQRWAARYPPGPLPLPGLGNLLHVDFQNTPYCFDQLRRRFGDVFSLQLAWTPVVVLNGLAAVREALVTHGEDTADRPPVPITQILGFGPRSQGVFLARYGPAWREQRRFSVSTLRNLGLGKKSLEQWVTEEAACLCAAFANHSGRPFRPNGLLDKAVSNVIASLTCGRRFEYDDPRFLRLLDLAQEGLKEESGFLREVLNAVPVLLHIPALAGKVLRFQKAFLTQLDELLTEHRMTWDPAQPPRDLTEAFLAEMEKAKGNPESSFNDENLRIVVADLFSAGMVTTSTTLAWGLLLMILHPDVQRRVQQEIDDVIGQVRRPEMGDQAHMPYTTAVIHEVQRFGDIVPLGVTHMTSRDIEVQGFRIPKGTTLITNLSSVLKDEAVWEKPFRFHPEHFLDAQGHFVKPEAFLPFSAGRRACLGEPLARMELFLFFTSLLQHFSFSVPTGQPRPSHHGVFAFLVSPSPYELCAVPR

Rattus norvegicus [2] = test: Ex vivo receptor occupancy at P2X7 in sc dosed Sprague-Dawley rat brain after 60 mins by autoradiography; type: functional
Cytochrome P450 3A4 = Cytochrome P450 3A4 (Homo sapiens, UniProt P08684); test: Inhibition of CYP3A4 in human liver microsomes using midazolam as substrate after 15 mins by LC-MS/MS analysis; type: ADME
Sequence of Cytochrome P450 3A4 (P08684 whole entry): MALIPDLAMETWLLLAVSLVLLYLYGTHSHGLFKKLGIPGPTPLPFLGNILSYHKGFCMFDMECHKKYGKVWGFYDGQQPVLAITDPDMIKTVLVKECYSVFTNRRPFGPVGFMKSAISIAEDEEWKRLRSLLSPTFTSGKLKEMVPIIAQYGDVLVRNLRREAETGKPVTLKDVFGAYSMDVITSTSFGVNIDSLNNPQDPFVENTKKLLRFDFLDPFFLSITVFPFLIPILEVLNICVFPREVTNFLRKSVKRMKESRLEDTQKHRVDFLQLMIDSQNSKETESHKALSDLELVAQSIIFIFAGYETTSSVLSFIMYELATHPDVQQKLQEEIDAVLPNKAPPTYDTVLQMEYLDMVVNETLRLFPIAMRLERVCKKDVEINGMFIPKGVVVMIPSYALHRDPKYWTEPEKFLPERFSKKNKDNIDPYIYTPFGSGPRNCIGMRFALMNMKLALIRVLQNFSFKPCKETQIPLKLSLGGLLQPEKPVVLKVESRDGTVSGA

[3] = Half life in Sprague-Dawley rat at 1 mg/kg, iv by LC-MS/MS analysis; type: ADME, organism-based; details: in vivo
[4] = Protein binding in rat brain at 5 uM after 5 hrs by equilibrium dialysis method; type: ADME, tissue-based; details: read-out: PB (converted)
[5] = Solubility of compound in phosphate buffer at pH 2 after 3 days; type: physicochemical
Cytochrome P450 2C9 [6] = biological target: T1, Cytochrome P450 2C9 (Homo sapiens, UniProt P11712); test: Inhibition of CYP2C9 in human liver microsomes using diclofenac as substrate after 15 mins by LC-MS/MS analysis; type: ADME
T1 sequence (P11712 whole entry): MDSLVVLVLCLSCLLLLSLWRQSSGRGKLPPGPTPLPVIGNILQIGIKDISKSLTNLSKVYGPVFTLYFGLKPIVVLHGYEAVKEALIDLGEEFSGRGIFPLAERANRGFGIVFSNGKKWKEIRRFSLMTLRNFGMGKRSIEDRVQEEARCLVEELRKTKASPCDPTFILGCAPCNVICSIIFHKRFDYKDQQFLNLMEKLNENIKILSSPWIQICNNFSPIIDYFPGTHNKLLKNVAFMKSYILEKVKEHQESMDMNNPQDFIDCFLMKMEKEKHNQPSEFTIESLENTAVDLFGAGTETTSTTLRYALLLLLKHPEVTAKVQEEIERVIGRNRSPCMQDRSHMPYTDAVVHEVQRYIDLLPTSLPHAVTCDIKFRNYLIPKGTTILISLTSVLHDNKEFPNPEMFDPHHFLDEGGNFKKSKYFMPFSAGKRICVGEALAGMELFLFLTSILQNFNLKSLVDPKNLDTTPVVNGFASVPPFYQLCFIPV

Rattus norvegicus [7] = test: Inhibition of Bz-ATP-induced IL-1beta release in sc dosed Sprague-Dawley rat hippocampus preincubated for 1 hr followed by Bz-ATP challenge measured after 2 hrs by microdialysis method; type: functional, organism-based
[8] = biological target: Voltage-gated inwardly rectifying potassium channel KCNH2 (Homo sapiens, UniProt Q12809); test: Inhibition of [3H]-dofetilide binding to human ERG expressed in HEK293 cells; type: cell-based
Sequence of Voltage-gated inwardly rectifying potassium channel KCNH2 (Q12809 whole entry): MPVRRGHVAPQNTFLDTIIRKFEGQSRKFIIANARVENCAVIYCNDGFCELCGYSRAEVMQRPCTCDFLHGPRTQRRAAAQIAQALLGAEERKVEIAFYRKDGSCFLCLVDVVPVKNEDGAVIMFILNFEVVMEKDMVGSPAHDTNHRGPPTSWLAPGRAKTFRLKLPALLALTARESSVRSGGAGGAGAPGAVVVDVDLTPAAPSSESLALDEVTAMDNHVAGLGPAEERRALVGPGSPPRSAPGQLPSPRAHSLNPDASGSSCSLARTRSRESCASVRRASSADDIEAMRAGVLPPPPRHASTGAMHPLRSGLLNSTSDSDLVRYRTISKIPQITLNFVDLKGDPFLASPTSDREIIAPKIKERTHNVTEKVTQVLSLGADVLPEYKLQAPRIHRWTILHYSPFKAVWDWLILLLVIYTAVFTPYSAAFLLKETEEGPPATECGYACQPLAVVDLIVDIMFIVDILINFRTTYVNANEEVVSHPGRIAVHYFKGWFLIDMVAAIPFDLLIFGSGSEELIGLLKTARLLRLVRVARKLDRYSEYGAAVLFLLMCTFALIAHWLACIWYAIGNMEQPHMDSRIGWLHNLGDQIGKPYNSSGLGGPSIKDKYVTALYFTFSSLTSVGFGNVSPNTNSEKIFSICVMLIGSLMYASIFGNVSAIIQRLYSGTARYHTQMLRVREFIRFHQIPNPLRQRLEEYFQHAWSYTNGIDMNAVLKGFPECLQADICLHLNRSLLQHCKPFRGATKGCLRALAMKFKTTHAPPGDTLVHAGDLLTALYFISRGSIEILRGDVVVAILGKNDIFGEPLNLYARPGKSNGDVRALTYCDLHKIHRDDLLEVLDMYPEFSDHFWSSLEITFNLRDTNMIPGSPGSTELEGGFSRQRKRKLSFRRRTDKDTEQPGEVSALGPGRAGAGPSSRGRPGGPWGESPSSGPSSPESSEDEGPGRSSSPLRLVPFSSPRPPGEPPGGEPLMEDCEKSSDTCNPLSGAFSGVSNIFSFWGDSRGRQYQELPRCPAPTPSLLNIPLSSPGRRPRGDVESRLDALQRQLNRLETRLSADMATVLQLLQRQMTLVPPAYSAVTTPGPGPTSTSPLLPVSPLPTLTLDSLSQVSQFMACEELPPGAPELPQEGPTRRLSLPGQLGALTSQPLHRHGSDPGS

[9] = Half life in beagle dog at 1 mg/kg, iv by LC-MS/MS analysis; type: ADME, organism-based, Canis lupus familiaris; details: in vivo
[10] = Clearance in beagle dog at 1 mg/kg, iv or 3 mg/kg, po by LC-MS/MS analysis; type: ADME, organism-based, Canis lupus familiaris; details: in vivo
[11] = Volume of distribution at steady state in Sprague-Dawley rat at 1 mg/kg, iv or 5 mg/kg, po by LC-MS/MS analysis; type: ADME, organism-based; details: in vivo, read-out: Vdss
[12] = Clearance in Sprague-Dawley rat at 1 mg/kg, iv or 5 mg/kg, po by LC-MS/MS analysis; type: ADME, organism-based; details: in vivo
Cytochrome P450 2C8 = biological target: T2, Cytochrome P450 2C8 (Homo sapiens, UniProt P10632); test: Inhibition of CYP2C8 in human liver microsomes using paclitaxel as substrate after 15 mins by LC-MS/MS analysis; type: ADME
T2 sequence (P10632 whole entry): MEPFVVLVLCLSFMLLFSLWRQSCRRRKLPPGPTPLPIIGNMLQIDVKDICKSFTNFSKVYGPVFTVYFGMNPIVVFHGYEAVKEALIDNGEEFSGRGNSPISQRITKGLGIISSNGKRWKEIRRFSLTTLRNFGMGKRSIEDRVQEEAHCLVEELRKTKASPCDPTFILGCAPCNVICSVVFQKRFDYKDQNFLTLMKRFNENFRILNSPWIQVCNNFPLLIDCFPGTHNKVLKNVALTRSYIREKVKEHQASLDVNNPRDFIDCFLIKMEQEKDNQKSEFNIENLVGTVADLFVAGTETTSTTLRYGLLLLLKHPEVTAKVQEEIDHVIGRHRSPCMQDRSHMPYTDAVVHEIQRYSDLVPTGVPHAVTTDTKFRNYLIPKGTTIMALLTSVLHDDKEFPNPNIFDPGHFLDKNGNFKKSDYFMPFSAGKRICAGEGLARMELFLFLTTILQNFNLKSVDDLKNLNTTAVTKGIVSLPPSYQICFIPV

[13] = Oral bioavailability in Sprague-Dawley rat at 5 mg/kg by LC-MS/MS analysis; type: ADME, organism-based; details: in vivo
Cytochrome P450 1A2 = biological target: T3, Cytochrome P450 1A2 (Homo sapiens, UniProt P05177); test: Inhibition of CYP1A2 in human liver microsomes using phenacetin as substrate after 15 mins by LC-MS/MS analysis; type: ADME
T3 sequence (P05177 whole entry): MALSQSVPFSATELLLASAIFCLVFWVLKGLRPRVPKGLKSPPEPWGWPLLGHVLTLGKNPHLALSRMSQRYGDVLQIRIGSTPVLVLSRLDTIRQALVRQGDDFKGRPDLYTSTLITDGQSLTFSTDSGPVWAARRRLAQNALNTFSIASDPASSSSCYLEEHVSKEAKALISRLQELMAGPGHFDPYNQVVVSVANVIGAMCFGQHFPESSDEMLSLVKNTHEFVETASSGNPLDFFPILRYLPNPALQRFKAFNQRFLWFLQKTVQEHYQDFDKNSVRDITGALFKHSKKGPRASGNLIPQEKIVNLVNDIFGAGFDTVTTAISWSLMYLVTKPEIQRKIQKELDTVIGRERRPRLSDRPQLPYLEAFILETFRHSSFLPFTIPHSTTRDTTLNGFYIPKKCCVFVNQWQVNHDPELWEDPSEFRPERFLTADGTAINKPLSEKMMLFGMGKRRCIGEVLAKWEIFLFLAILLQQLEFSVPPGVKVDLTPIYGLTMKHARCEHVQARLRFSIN

[14] = Protein binding in mouse plasma at 1 uM after 6 hrs by equilibrium dialysis method; type: ADME, cell-free; details: read-out: PPB (converted)
[15] = Oral bioavailability in beagle dog at 3 mg/kg by LC-MS/MS analysis; type: ADME, organism-based, Canis lupus familiaris; details: in vivo
[16] = Protein binding in rat plasma at 1 uM after 6 hrs by equilibrium dialysis method; type: ADME, cell-free; details: read-out: PPB (converted)
Cytochrome P450 2C19 [17] = biological target: T4, Cytochrome P450 2C19 (Homo sapiens, UniProt P33261); test: Inhibition of CYP2C19 in human liver microsomes using S-mephenytoin as substrate after 15 mins by LC-MS/MS analysis; type: ADME
T4 sequence (P33261 whole entry): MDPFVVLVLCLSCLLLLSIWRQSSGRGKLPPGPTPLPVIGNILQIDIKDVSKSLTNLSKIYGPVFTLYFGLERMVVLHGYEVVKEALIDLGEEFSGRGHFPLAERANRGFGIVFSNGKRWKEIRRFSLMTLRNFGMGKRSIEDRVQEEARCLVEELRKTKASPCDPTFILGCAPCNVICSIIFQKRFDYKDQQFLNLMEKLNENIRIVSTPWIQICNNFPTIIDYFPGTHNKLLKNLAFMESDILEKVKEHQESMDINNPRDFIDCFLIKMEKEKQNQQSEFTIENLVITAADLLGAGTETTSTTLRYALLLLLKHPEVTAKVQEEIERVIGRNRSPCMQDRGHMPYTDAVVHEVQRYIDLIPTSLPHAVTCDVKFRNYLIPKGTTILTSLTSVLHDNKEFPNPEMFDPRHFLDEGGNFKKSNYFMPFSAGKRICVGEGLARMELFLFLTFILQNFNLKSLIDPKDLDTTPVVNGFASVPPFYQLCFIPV

[18] = Protein binding in human plasma at 1 uM after 6 hrs by equilibrium dialysis method; type: ADME, cell-free; details: read-out: PPB (converted)
[19] = Volume of distribution at steady state in beagle dog at 1 mg/kg, iv or 3 mg/kg, po by LC-MS/MS analysis; type: ADME, organism-based, Canis lupus familiaris; details: in vivo, read-out: Vdss
Rattus norvegicus [20] = test: Toxicity in rat assessed as ataxia at 500 to 1000 mg/kg administered single dose via oral gavage; type: organism-based; details: in vivo
[21] = Oral bioavailability in beagle dog at 2.5 mg/kg by LC-MS/MS analysis; type: ADME, organism-based, Canis lupus familiaris; details: beagle, in vivo
[22] = Ratio of drug level in po dosed Sprague-Dawley rat brain to plasma; type: ADME, organism-based; details: read-out: BPR
[23] = Half life in Balb/c mouse at 1 mg/kg, iv by LC-MS/MS analysis; type: ADME, organism-based; details: in vivo
[24] = Volume of distribution at steady state in Balb/c mouse at 1 mg/kg, iv or 5 mg/kg, po by LC-MS/MS analysis; type: ADME, organism-based; details: in vivo, read-out: Vdss
Rattus norvegicus [25] = test: Ex vivo receptor occupancy at P2X7 in po dosed Sprague-Dawley rat brain assessed as plasma concentration required to achieve EC50 after 60 mins by autoradiography; type: functional, organism-based
[26] = Oral bioavailability in cynomolgus monkey at 5 mg/kg by LC-MS/MS analysis; type: ADME, organism-based, Macaca fascicularis; details: in vivo
[27] = Oral bioavailability in Balb/c mouse at 5 mg/kg by LC-MS/MS analysis; type: ADME, organism-based; details: in vivo
Cytochrome P450 2C9 [28] = biological target: T1, Cytochrome P450 2C9; test: Drug metabolism assessed as recombinant human CYP2C9-mediated metabolite formation; type: ADME; details: recombinant enzyme
[29] = Clearance in cynomolgus monkey at 1 mg/kg, iv or 5 mg/kg, po by LC-MS/MS analysis; type: ADME, organism-based, Macaca fascicularis; details: in vivo
[30] = Clearance in Balb/c mouse at 1 mg/kg, iv or 5 mg/kg, po by LC-MS/MS analysis; type: ADME, organism-based; details: in vivo
Cytochrome P450 2C19 [31] = biological target: T4, Cytochrome P450 2C19; test: Drug metabolism assessed as recombinant human CYP2C19-mediated metabolite formation; type: ADME; details: recombinant enzyme
[32] = Drug excretion in Sprague-Dawley rat at 1 mg/kg, iv or 5 mg/kg, po by LC-MS/MS analysis; type: ADME, organism-based; details: in vivo, read-out: Drug excretion
Rattus norvegicus [33] = test: Ex vivo receptor occupancy at P2X7 in po dosed Sprague-Dawley rat brain after 60 mins by autoradiography; type: functional
Plasma = test: Plasma concentration in rat at 250 mg/kg administered single dose via oral gavage; type: ADME, organism-based; details: in vivo
[34] = Half life in cynomolgus monkey at 1 mg/kg, iv by LC-MS/MS analysis; type: ADME, organism-based, Macaca fascicularis; details: in vivo
Rattus norvegicus [35] = test: Toxicity in rat assessed as autoinduction at 50 to 150 mg/kg administered via oral gavage on day 1 and day 4; type: organism-based; details: in vivo
[36] = Volume of distribution at steady state in beagle dog at 0.5 mg/kg, iv or 2.5 mg/kg, po by LC-MS/MS analysis; type: ADME, organism-based, Canis lupus familiaris; details: in vivo, read-out: Vdss
Rattus norvegicus [37] = test: Toxicity in rat assessed as hepatic lipidosis at 50 to 350 mg/kg administered via oral gavage on day 1 and day 4 measured on day 5 by hematoxylin/eosin staining-based microscopic method; type: organism-based; details: in vivo
Rattus norvegicus [38] = test: Drug metabolism in Sprague-Dawley rat assessed as formation of (R)-(2-chloro-3-(trifluoromethyl)phenyl)(4-methyl-1,4,6,7-tetrahydro-5H-[1,2,3]triazolo[4,5-c]pyridin-5-yl)methanone at 1 mg/kg, iv or 5 mg/kg, po by LC-MS/MS analysis; type: ADME, organism-based; details: in vivo
[39] = Clearance in beagle dog at 0.5 mg/kg, iv or 2.5 mg/kg, po by LC-MS/MS analysis; type: ADME, organism-based, Canis lupus familiaris; details: in vivo
[40] = Volume of distribution at steady state in cynomolgus monkey at 1 mg/kg, iv or 5 mg/kg, po by LC-MS/MS analysis; type: ADME, organism-based, Macaca fascicularis; details: in vivo, read-out: Vdss
Rattus norvegicus [41] = test: Toxicity in rat assessed as decrease in activity at 250 to 1000 mg/kg administered single dose via oral gavage; type: organism-based; details: in vivo
Rattus norvegicus [42] = test: Toxicity in rat assessed as increase in liver weight at 50 to 150 mg/kg administered via oral gavage on day 1 and day 4; type: organism-based; details: in vivo
[43] = Half life in beagle dog at 0.5 mg/kg, iv by LC-MS/MS analysis; type: ADME, organism-based, Canis lupus familiaris; details: in vivo

C[C@@H]1c2nnn(-c3cnccn3)c2CCN1C(=O)c1cccc(C(F)(F)F)c1Cl
solubility at 72 h [1]: 94.4 µM (≈ 39.9 µg/mL)
IC50 (Cytochrome P450 2D6): > 10 µM
Occ (Rattus norvegicus [2]): Dose-dependent effect
ED50 (Rattus norvegicus [2]; 1 h): 0.3 mg/kg
IC50 (Cytochrome P450 3A4): 2300 nM
half-life [3]: 90 min
fraction unbound at 5 h, 5 µM [4]: 0.05
solubility at 72 h [5]: 48.2 µM (≈ 20.4 µg/mL)
IC50 (Cytochrome P450 2C9 [6]): > 10 µM
inhibition (Rattus norvegicus [7]): Dose-dependent effect
IC50 [8]: > 10 µM
half-life [9]: 144 min
clearance [10]: 33 mL/min/kg
Vd [11]: 3 L/kg
clearance [12]: 46 mL/min/kg
IC50 (Cytochrome P450 2C8): > 10 µM
bioavailability [13]: 77%
IC50 (Cytochrome P450 1A2): > 10 µM
fraction unbound at 6 h, 1 µM [14]: 0.053
bioavailability [15]: 65%
fraction unbound at 6 h, 1 µM [16]: 0.063
IC50 (Cytochrome P450 2C19 [17]): 4.3 µM
fraction unbound at 6 h, 1 µM [18]: 0.084
Vd [19]: 3.3 L/kg

C[C@@H]1c2nnn(-c3ncccn3)c2CCN1C(=O)c1cccc(C(F)(F)F)c1Cl
solubility at 72 h [1]: 180 µM (≈ 76.1 µg/mL)
Activity (Rattus norvegicus [20]): Toxic
IC50 (Cytochrome P450 2D6): > 10 µM
bioavailability [21]: 70%
Kp [22]: 0.8
half-life [23]: 24 min
IC50 (Cytochrome P450 3A4): > 10000 nM
half-life [3]: 30 min
Vd [24]: 1.1 L/kg
Cp (Rattus norvegicus [25]): 27 ng/mL
bioavailability [26]: 5%
solubility at 72 h [5]: > 400 µM
IC50 (Cytochrome P450 2C9 [6]): > 10 µM
bioavailability [27]: 61%
Drug metabolism (Cytochrome P450 2C9 [28]): Metabolite_Detected
clearance [29]: 19 mL/min/kg
IC50 [8]: > 10 µM
clearance [30]: 32 mL/min/kg
Drug metabolism (Cytochrome P450 2C19 [31]): Metabolite_Detected
dose excreted [32]: 0.4%
Occ (Rattus norvegicus [33]): Dose-dependent effect
ED50 (Rattus norvegicus [33]; 1 h): 0.9 mg/kg
concentration (Plasma): 175 µM
Vd [11]: 1.5 L/kg
clearance [12]: 66 mL/min/kg
half-life [34]: 48 min
IC50 (Cytochrome P450 2C8): > 10 µM
bioavailability [13]: 92%
Activity (Rattus norvegicus [35]): Toxic
Vd [36]: 1.3 L/kg
IC50 (Cytochrome P450 1A2): > 10 µM
Activity (Rattus norvegicus [37]): Toxic
Drug metabolism (Rattus norvegicus [38]): Metabolite_Detected
clearance [39]: 1.4 mL/min/kg
Vd [40]: 0.9 L/kg
Activity (Rattus norvegicus [41]): Toxic
Activity (Rattus norvegicus [42]): Toxic
fraction unbound at 6 h, 1 µM [14]: 0.074
half-life [43]: 660 min
fraction unbound at 6 h, 1 µM [16]: 0.076
IC50 (Cytochrome P450 2C19 [17]): > 10 µM
fraction unbound at 6 h, 1 µM [18]: 0.084
